# Measurements from PMC9928118, “Funneling modulatory peptide design with generative models: Discovery and characterization of disruptors of calcineurin protein-protein interactions” (PLOS Computational Biology, 2023).
# Test system: GST-tagged Cn
# Assay: PEPperPRINT peptide microarray binding assay with GST-tagged Cn
# Method in brief: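 Qualitative binding: peptides printed on a PEPperPRINT microarray were incubated overnight at 4 °C with 1 mg/ml GST-tagged Cn, then detected with Alexa-Fluor 647 anti-GST antibody. Log fluorescence was baseline-corrected, averaged over duplicate spots, Z-normalized and averaged across five repeats.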
# [1] = GST-tagged Cn, max over the chip spots listed under Location on chip
# [2] = GST-tagged Cn, mean over the chip spots listed under Location on chip
# [3] = max over the chip locations listed for the peptide (two spots)
# [4] = mean over the chip locations listed for the peptide (two spots)
# [5] = GST-tagged Cn, max over the spots named in Location on chip
# [6] = GST-tagged Cn, mean over the spots named in Location on chip
# [7] = GST-tagged Cn, max over the spots on the chip (two locations)
# [8] = GST-tagged Cn, mean over the spots on the chip (two locations)
# [9] = max over the spots listed under Location on chip
# [10] = mean over the spots listed under Location on chip
# [11] = GST-tagged Cn, max over the chip locations
# [12] = GST-tagged Cn, mean over the chip locations
sequence,measurement,setting,value
LVWDNGSYTGRTIKAP [Seqshuffled_9818],Chip Fluorescence (max),[1],0.8809
same,Chip Fluorescence (mean),[2],-0.1421
TFWMNPQFKISLEDPD [SeqRBMlowT_4243],Chip Fluorescence (max),[3],3.47
same,Chip Fluorescence (mean),[4],1.839
LDEAIPEIVISPPETP [SeqRBMlowT_4410],Chip Fluorescence (max),[3],9.285
same,Chip Fluorescence (mean),[4],1.035
TTLVIPQMRLTSEATF [SeqRBM_1117],Chip Fluorescence (max),[3],5.611
same,Chip Fluorescence (mean),[4],1.324
GGPGTPTRQGQHLAPG [SeqRBMlowT_9846],Chip Fluorescence (max),[3],21.0979
same,Chip Fluorescence (mean),[4],2.702
TFWTNPQFKITLEDPD [SeqRBMlowT_205],Chip Fluorescence (max),[5],1.84
same,Chip Fluorescence (mean),[6],-0.4239
KKMSPPCINIDPAPEN [SeqRBMlowT_2410],Chip Fluorescence (max),[7],1.08
same,Chip Fluorescence (mean),[8],-0.8311
TFWINPQIVITLADED [SeqRBMlowT_2933],Chip Fluorescence (max),[9],2.77
same,Chip Fluorescence (mean),[10],0.3523
TFWTNPQYTITLEEPD [SeqRBMlowT_2235],Chip Fluorescence (max),[5],1.679
same,Chip Fluorescence (mean),[6],0.2149
TFWTNPQFRITLEEVD [SeqRBMlowT_245],Chip Fluorescence (max),[9],2.7449
same,Chip Fluorescence (mean),[10],0.8824
PQLYQNVLGIGSFSLS [SeqRBMlowT_4804],Chip Fluorescence (max),[1],0.4517
same,Chip Fluorescence (mean),[2],-0.7977
KSKLIPKLSFQSPVHH [SeqRBMlowT_3425],Chip Fluorescence (max),[11],0.2205
same,Chip Fluorescence (mean),[12],-0.7902
RAYINPFMQFTDGGRR [SeqRBMlowT_4069],Chip Fluorescence (max),[7],1.3045
same,Chip Fluorescence (mean),[8],0.5135
KKMAPPCISVHPPEED [SeqRBMlowT_5025],Chip Fluorescence (max),[1],0.441
same,Chip Fluorescence (mean),[2],-1.335
TFWTNPQYRITLEELD [SeqRBMlowT_2291],Chip Fluorescence (max),[3],5.53
same,Chip Fluorescence (mean),[4],0.9297
RQPGQALLTLRGHKKQ [SeqRBMlowT_5816],Chip Fluorescence (max),[5],1.5016
same,Chip Fluorescence (mean),[6],0.5912
GVQANPQFTIKAMMTN [SeqRBM_9281],Chip Fluorescence (max),[11],-0.1422
same,Chip Fluorescence (mean),[12],-2.366
TFWTNPQFKVKLTDPD [SeqRBMlowT_2929],Chip Fluorescence (max),[11],-0.3202
same,Chip Fluorescence (mean),[12],-2.672
SQAKSPRIEITAYTHV [SeqRBM_8514],Chip Fluorescence (max),[1],0.9232
same,Chip Fluorescence (mean),[2],-0.444
RNYINPQAQFTYDSGA [SeqRBM_6031],Chip Fluorescence (max),[11],-0.2579
same,Chip Fluorescence (mean),[12],-0.9244
STSSLPTFSFSSPKPQ [SeqRBMlowT_8920],Chip Fluorescence (max),[7],1.216
same,Chip Fluorescence (mean),[8],-1.018
NIIKTLTAVARYCQHF [Seqrandom_9968],Chip Fluorescence (max),[5],1.398
same,Chip Fluorescence (mean),[6],-0.3065
NWPETPSIVEQPPSSS [SeqRBM_881],Chip Fluorescence (max),[11],0.2051
same,Chip Fluorescence (mean),[12],-1.045
SNSTNPEITITPAELC [SeqRIPOR2_Tarsius_syrichta],Chip Fluorescence (max),[3],7.538
same,Chip Fluorescence (mean),[4],1.227
KAYMNPYMQFIDGGRR [SeqRBMlowT_4720],Chip Fluorescence (max),[7],1.204
same,Chip Fluorescence (mean),[8],-0.1516
KSKLIPKLSIQSPVRH [SeqJHY_Macaca_mulatta],Chip Fluorescence (max),[7],1.129
same,Chip Fluorescence (mean),[8],-1.294
SHMAPPAINIDFAPSN [SeqCRZ1_Metarhizium_rileyi],Chip Fluorescence (max),[11],0.3108
same,Chip Fluorescence (mean),[12],-0.9278
TFWTNPQYRVTVTDPD [SeqRBMlowT_615],Chip Fluorescence (max),[5],1.649
same,Chip Fluorescence (mean),[6],0.4883
DTLWIGSGTVTDSGNY [SeqRBM_1220],Chip Fluorescence (max),[3],3.766
same,Chip Fluorescence (mean),[4],0.1629
ASDDIPTVVIHPPEED [SeqSLC4A7_Pan_troglodytes],Chip Fluorescence (max),[9],2.587
same,Chip Fluorescence (mean),[10],-0.184
KKMAPPCINIDPAPEN [SeqRBMlowT_2431],Chip Fluorescence (max),[3],3.662
same,Chip Fluorescence (mean),[4],0.8549
KSRALSKVVINEPLTI [SeqTRESK_Leptosomus_discolor],Chip Fluorescence (max),[7],1.0328
same,Chip Fluorescence (mean),[8],-0.6623
ASGLSPRIEITPSHEL [SeqNFATC2_Homo_sapiens],Chip Fluorescence (max),[7],0.9983
same,Chip Fluorescence (mean),[8],0.1363
TFWSNPQFKIKLEEED [SeqRBMlowT_8507],Chip Fluorescence (max),[7],1.116
same,Chip Fluorescence (mean),[8],-0.2464
HVSSSPDIAITPTQHR [SeqRBMlowT_750],Chip Fluorescence (max),[11],0.08257
same,Chip Fluorescence (mean),[12],-1.44
RSYVNPAYSFTFDSKA [SeqSFB3_Lachancea_meyersii],Chip Fluorescence (max),[5],1.532
same,Chip Fluorescence (mean),[6],-0.902
KAYMCPYMQFIDGGRK [SeqRBMlowT_9280],Chip Fluorescence (max),[5],1.462
same,Chip Fluorescence (mean),[6],1.063
ADEAIPEITITSAELP [SeqRBMlowT_2514],Chip Fluorescence (max),[3],17.6628
same,Chip Fluorescence (mean),[4],2.99
FLGRGPQLEDFDPSRD [Seqshuffled_9338],Chip Fluorescence (max),[3],4.229
same,Chip Fluorescence (mean),[4],0.4051
RAYINPFMTFTDGGRR [SeqRBMlowT_3400],Chip Fluorescence (max),[9],3.064
same,Chip Fluorescence (mean),[10],0.978
ADEANPEITITPPELP [SeqRBMlowT_372],Chip Fluorescence (max),[3],6.273
same,Chip Fluorescence (mean),[4],1.325
HSKFIPKLSLQSPVHH [SeqRBMlowT_1695],Chip Fluorescence (max),[7],1.29
same,Chip Fluorescence (mean),[8],-0.2065
NICTSLTLVETDPTVY [Seqshuffled_9501],Chip Fluorescence (max),[9],2.929
same,Chip Fluorescence (mean),[10],1.69
TSSSLPTFNFSSSVIT [SeqNUP153_Canis_lupus],Chip Fluorescence (max),[7],0.9878
same,Chip Fluorescence (mean),[8],-0.982
TFWTNPQYRVHVPDED [SeqRBMlowT_2927],Chip Fluorescence (max),[7],1.2431
same,Chip Fluorescence (mean),[8],-0.6745
TFWTNPQYRITLEDED [SeqRBMlowT_1185],Chip Fluorescence (max),[3],4.604
same,Chip Fluorescence (mean),[4],0.2377
KVMAVPRISRSPTQVL [SeqRBM_6937],Chip Fluorescence (max),[5],1.835
same,Chip Fluorescence (mean),[6],0.723
TFWTNPQYRLKIPQVD [SeqRBMlowT_9671],Chip Fluorescence (max),[1],0.5794
same,Chip Fluorescence (mean),[2],-0.5687
KAYMCPAVSFQDGGRR [SeqRBMlowT_4017],Chip Fluorescence (max),[5],1.6
same,Chip Fluorescence (mean),[6],-0.3289
FETSHPTVQLKIPQLR [SeqLCORL_Pteropus_alecto],Chip Fluorescence (max),[9],2.606
same,Chip Fluorescence (mean),[10],-0.1576
SKMAIAIYQMASCLLH [Seqshuffled_9384],Chip Fluorescence (max),[5],1.655
same,Chip Fluorescence (mean),[6],0.8527
ADGAGVGIVITVTEAE [SeqRBMlowT_1411],Chip Fluorescence (max),[7],1.31
same,Chip Fluorescence (mean),[8],-0.2973
SSMAPPAINIDFAPTN [SeqRBMlowT_1806],Chip Fluorescence (max),[5],1.404
same,Chip Fluorescence (mean),[6],0.3806
PGLYDNALGIESFTLS [SeqRBMlowT_2801],Chip Fluorescence (max),[5],1.445
same,Chip Fluorescence (mean),[6],0.04021
STSSLPTFSFSPPAPS [SeqRBMlowT_2355],Chip Fluorescence (max),[5],1.468
same,Chip Fluorescence (mean),[6],-0.4662
YFFDRDTGAGKIEQEH [Seqrandom_9991],Chip Fluorescence (max),[9],2.629
same,Chip Fluorescence (mean),[10],-0.3443
SLDEEPGISINEKPVG [Seqshuffled_9948],Chip Fluorescence (max),[5],1.684
same,Chip Fluorescence (mean),[6],0.5765
QGLYENVLGMEAFSVS [SeqRBM_7629],Chip Fluorescence (max),[1],0.8552
same,Chip Fluorescence (mean),[2],0.1691
NVLRISSARPDNRGVY [SeqCEACAM5_Musca_domestica],Chip Fluorescence (max),[5],1.598
same,Chip Fluorescence (mean),[6],0.6708
HSKSIPKISIQSPVHH [SeqRBMlowT_863],Chip Fluorescence (max),[11],-0.2725
same,Chip Fluorescence (mean),[12],-0.8171
SAGTGVGIVITVTEAE [SeqRBMlowT_1404],Chip Fluorescence (max),[3],4.275
same,Chip Fluorescence (mean),[4],0.4123
QLLAVPALSVDRKGPK [SeqCACUL1_Dipodomys_ordii],Chip Fluorescence (max),[7],1.085
same,Chip Fluorescence (mean),[8],-0.04024
RAMRILKCCPHPAAWN [Seqrandom_9981],Chip Fluorescence (max),[7],1.034
same,Chip Fluorescence (mean),[8],0.3693
SYLPIIQVRMTDTGEY [SeqRBM_6285],Chip Fluorescence (max),[7],1.118
same,Chip Fluorescence (mean),[8],0.3431
GAPITPHKQGNEKAVS [SeqRBM_6919],Chip Fluorescence (max),[1],0.7143
same,Chip Fluorescence (mean),[2],-1.223
LGRMSPQSTTQALPST [Seqshuffled_9332],Chip Fluorescence (max),[5],1.718
same,Chip Fluorescence (mean),[6],-0.1183
KEGPISSTVVMEALSI [SeqRBM_843],Chip Fluorescence (max),[1],0.8382
same,Chip Fluorescence (mean),[2],-0.2608
FHYEDLSWHFQLFEGE [Seqrandom_9976],Chip Fluorescence (max),[3],5.256
same,Chip Fluorescence (mean),[4],1.49
ADEAIPEIVISPPELP [SeqRBMlowT_1959],Chip Fluorescence (max),[9],3.309
same,Chip Fluorescence (mean),[10],0.2863
STSSLPTFSFSSLAPS [SeqRBMlowT_2354],Chip Fluorescence (max),[7],1.162
same,Chip Fluorescence (mean),[8],-0.4848
PENKFQPFAIKLCVKG [Seqshuffled_5021],Chip Fluorescence (max),[1],0.8772
same,Chip Fluorescence (mean),[2],-0.6992
HSKLIPKLSFQSPVHH [SeqRBMlowT_814],Chip Fluorescence (max),[11],-0.8035
same,Chip Fluorescence (mean),[12],-1.44
SSSSLPTFQFSTPATL [SeqRBM_7341],Chip Fluorescence (max),[7],1.265
same,Chip Fluorescence (mean),[8],-1.213
LATQVPTFEITSPNSA [SeqNRG2_Pan_troglodytes],Chip Fluorescence (max),[11],0.1795
same,Chip Fluorescence (mean),[12],-0.588
MLSIRPSARLKIPQHR [SeqRBM_1889],Chip Fluorescence (max),[5],1.553
same,Chip Fluorescence (mean),[6],-0.6579
TFHINPQLHLIVSDAD [SeqCAPN11_Daphnia_magna],Chip Fluorescence (max),[11],-0.5586
same,Chip Fluorescence (mean),[12],-0.9234
